Results as given in US8952024B2, “Herbicidal pyrimidone derivatives” (E I du Pont de Nemours and Company, priority 2009, dated 2015).

Tests used:
Experiment in all cases: Test B pre-/postemergence plant response
Type in all cases: in vivo
[1] = tested on: Italian ryegrass (Lolium multiflorum); details: for Ryegrass, Italian plant response rating (0 to 100 scale): 0 is no effect, 13 to 15 days
Procedure, shortened: (§1)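 Compound in solvent + surfactant applied pre-em (loam/sand) or post-em (plants 2–18 cm, peat medium); greenhouse hold 13–15 days; visual 0–100 control score.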

[2] = tested on: Surinam grass (Brachiaria decumbens); details: for Surinam Grass plant response rating (0 to 100 scale): 0 is no effect, 13 to 15 days
Procedure, shortened: as §1

[3] = tested on: blackgrass (Alopecurus myosuroides); details: for Blackgrass plant response rating (0 to 100 scale): 0 is no effect, 13 to 15 days
Procedure, shortened: as §1

[4] = tested on: corn (Zea mays); details: for Corn plant response rating (0 to 100 scale): 62 g ai/ha, 0 is no effect, 13 to 15 days
Procedure, shortened: as §1

[5] = tested on: downy bromegrass (Bromus tectorum); details: for Bromegrass, Downy plant response rating (0 to 100 scale): 0 is no effect, 13 to 15 days
Procedure, shortened: as §1

[6] = tested on: giant foxtail (Setaria faberii); details: for Foxtail, Giant plant response rating (0 to 100 scale): 0 is no effect, 13 to 15 days
Procedure, shortened: as §1

[7] = tested on: johnsongrass (Sorghum halepense); details: for Johnsongrass plant response rating (0 to 100 scale): 0 is no effect, 13 to 15 days
Procedure, shortened: as §1

[8] = tested on: kochia (Kochia scoparia); details: for Kochia plant response rating (0 to 100 scale): 0 is no effect, 13 to 15 days
Procedure, shortened: as §1

[9] = tested on: pigweed (Amaranthus retroflexus); details: for Pigweed plant response rating (0 to 100 scale): 0 is no effect, 13 to 15 days
Procedure, shortened: as §1

[10] = tested on: ragweed (common ragweed, Ambrosia elatior); details: for Ragweed plant response rating (0 to 100 scale): 0 is no effect, 13 to 15 days
Procedure, shortened: as §1

[11] = tested on: soybean (Glycine max); details: for Soybean plant response rating (0 to 100 scale): 0 is no effect, 13 to 15 days
Procedure, shortened: as §1

[12] = tested on: velvetleaf (Abutilon theophrasti); details: for Velvetleaf plant response rating (0 to 100 scale): 0 is no effect, 13 to 15 days
Procedure, shortened: as §1

[13] = tested on: woolly cupgrass (Eriochloa villosa); details: for Cupgrass, Woolly plant response rating (0 to 100 scale): 0 is no effect, 13 to 15 days
Procedure, shortened: as §1

[14] = 62 g ai/ha, postemergence, 100 is complete control
[15] = Postemergence, 125 g ai/ha, scale 0 to 100 (0 no effect, 100 complete control)
[16] = Postemergence, 250 g ai/ha, scale 0 to 100 (0 no effect, 100 complete control)
[17] = Preemergence, 31 g ai/ha, scale 0 to 100 (0 no effect, 100 complete control)
[18] = Preemergence, 62 g ai/ha, scale 0 to 100 (0 no effect, 100 complete control)
[19] = Preemergence, 125 g ai/ha, scale 0 to 100, 0 no effect, 100 complete control
[20] = Preemergence, 250 g ai/ha, 0 to 100 scale
[21] = 31 g ai/ha, postemergence, scale 0 to 100, 0 is no effect, 100 is complete control
[22] = postemergence, 100 is complete control
[23] = Postemergence, 125 g ai/ha, visual rating after 13 to 15 days, scale 0 (no effect) to 100 (complete control)

SMILES: COCCCn1c(-c2cc(F)cc(F)c2)ncc(C(=O)C2=C(O)CCCC2=O)c1=O [Compound 120]
- Ryegrass, Italian plant response rating (0 to 100 scale) [1, 14]: 40
- Plant response rating, Ryegrass, Italian [1, 15]: 60
- Plant response rating, Ryegrass, Italian [1, 16]: 80
- Plant response rating, Ryegrass, Italian [1, 17]: 100
- Plant response rating, Ryegrass, Italian [1, 18]: 100
- Plant response rating, Ryegrass, Italian [1, 19]: 100
- Ryegrass, Italian plant response rating [1, 20]: 100
- Surinam Grass plant response rating (0 to 100 scale) [2, 14]: 85
- Plant response rating, Surinam Grass [2, 15]: 100
- Plant response rating, Surinam Grass [2, 16]: 100
- Plant response rating, Surinam Grass [2, 17]: 100
- Plant response rating, Surinam Grass [2, 18]: 100
- Plant response rating, Surinam Grass [2, 19]: 100
- Surinam Grass plant response rating [2, 20]: 100
- Plant response rating, Blackgrass [3, 21]: 30
- Blackgrass plant response rating (0 to 100 scale) [3, 14]: 30
- Plant response rating, Blackgrass [3, 15]: 60
- Plant response rating, Blackgrass [3, 16]: 60
- Plant response rating, Blackgrass [3, 17]: 5
- Plant response rating, Blackgrass [3, 18]: 50
- Plant response rating, Blackgrass [3, 19]: 50
- Blackgrass plant response rating [3, 20]: 50
- Plant response rating, Corn [4, 21]: 15
- Corn plant response rating (0 to 100 scale) [4, 22]: 20
- Plant response rating, Corn [4, 15]: 50
- Plant response rating, Corn [4, 16]: 75
- Plant response rating, Corn [4, 17]: 0
- Plant response rating, Corn [4, 19]: 25
- Corn plant response rating [4, 20]: 55
- Plant response rating, Bromegrass, Downy [5, 21]: 20
- Bromegrass, Downy plant response rating (0 to 100 scale) [5, 14]: 60
- Plant response rating, Bromegrass, Downy [5, 15]: 60
- Plant response rating, Bromegrass, Downy [5, 16]: 80
- Plant response rating, Bromegrass, Downy [5, 17]: 10
- Plant response rating, Bromegrass, Downy [5, 18]: 30
- Plant response rating, Bromegrass, Downy [5, 19]: 30
- Bromegrass, Downy plant response rating [5, 20]: 85
- Plant response rating, Foxtail, Giant [6, 21]: 75
- Foxtail, Giant plant response rating (0 to 100 scale) [6, 14]: 80
- Plant response rating, Foxtail, Giant [6, 15]: 85
- Plant response rating, Foxtail, Giant [6, 16]: 98
- Plant response rating, Foxtail, Giant [6, 17]: 75
- Plant response rating, Foxtail, Giant [6, 18]: 98
- Plant response rating, Foxtail, Giant [6, 19]: 98
- Foxtail, Giant plant response rating [6, 20]: 100
- Plant response rating, Johnsongrass [7, 21]: 15
- Johnsongrass plant response rating (0 to 100 scale) [7, 14]: 25
- Plant response rating, Johnsongrass [7, 15]: 75
- Plant response rating, Johnsongrass [7, 16]: 80
- Plant response rating, Johnsongrass [7, 17]: 35
- Plant response rating, Johnsongrass [7, 18]: 70
- Plant response rating, Johnsongrass [7, 19]: 80
- Johnsongrass plant response rating [7, 20]: 90
- Plant response rating, Kochia [8, 21]: 10
- Kochia plant response rating (0 to 100 scale) [8, 14]: 40
- Plant response rating, Kochia [8, 15]: 80
- Plant response rating, Kochia [8, 16]: 98
- Plant response rating, Kochia [8, 17]: 0
- Plant response rating, Kochia [8, 18]: 20
- Plant response rating, Kochia [8, 19]: 50
- Kochia plant response rating [8, 20]: 75
- Plant response rating, Pigweed [9, 21]: 95
- Pigweed plant response rating (0 to 100 scale) [9, 14]: 98
- Plant response rating, Pigweed [9, 15]: 100
- Plant response rating, Pigweed [9, 16]: 100
- Plant response rating, Pigweed [9, 17]: 95
- Plant response rating, Pigweed [9, 18]: 100
- Plant response rating, Pigweed [9, 19]: 100
- Pigweed plant response rating [9, 20]: 100
- Ragweed plant response rating (0 to 100 scale) [10, 14]: 75
- Plant response rating, Ragweed [10, 15]: 75
- Plant response rating, Ragweed [10, 16]: 80
- Plant response rating, Ragweed [10, 17]: 80
- Plant response rating, Ragweed [10, 18]: 80
- Plant response rating, Ragweed [10, 19]: 95
- Ragweed plant response rating [10, 20]: 95
- Soybean plant response rating (0 to 100 scale) [11, 14]: 80
- Plant response rating, Soybean [11, 15]: 95
- Plant response rating, Soybean [11, 16]: 98
- Plant response rating, Soybean [11, 17]: 15
- Plant response rating, Soybean [11, 18]: 70
- Plant response rating, Soybean [11, 19]: 80
- Soybean plant response rating [11, 20]: 80
- Velvetleaf plant response rating (0 to 100 scale) [12, 14]: 95
- Plant response rating, Velvetleaf [12, 15]: 98
- Plant response rating, Velvetleaf [12, 16]: 100
- Plant response rating, Velvetleaf [12, 17]: 80
- Plant response rating, Velvetleaf [12, 18]: 100
- Plant response rating, Velvetleaf [12, 19]: 100
- Velvetleaf plant response rating [12, 20]: 100
- Plant response rating, Cupgrass, Woolly [13, 21]: 70
- Cupgrass, Woolly plant response rating (0 to 100 scale) [13, 14]: 75
- Plant response rating, Cupgrass, Woolly [13, 15]: 100
- Plant response rating, Cupgrass, Woolly [13, 16]: 100
- Plant response rating, Cupgrass, Woolly [13, 17]: 50
- Plant response rating, Cupgrass, Woolly [13, 18]: 70
- Plant response rating, Cupgrass, Woolly [13, 19]: 75
- Cupgrass, Woolly plant response rating [13, 20]: 90

SMILES: Cc1ccc(-c2ncc(C(=O)C3=C(O)CCCC3=O)c(=O)n2-c2ccccc2)cc1 [Compound 80]
- Plant response rating, Ryegrass, Italian [1, 21]: 0
- Ryegrass, Italian plant response rating (0 to 100 scale) [1, 14]: 0
- Plant response rating, Ryegrass, Italian [1, 23]: 5
- Plant response rating, Ryegrass, Italian [1, 16]: 5
- Plant response rating, Surinam Grass [2, 21]: 45
- Surinam Grass plant response rating (0 to 100 scale) [2, 14]: 45
- Plant response rating, Surinam Grass [2, 23]: 60
- Plant response rating, Surinam Grass [2, 16]: 65
- Plant response rating, Blackgrass [3, 21]: 0
- Blackgrass plant response rating (0 to 100 scale) [3, 14]: 0
- Plant response rating, Blackgrass [3, 23]: 5
- Plant response rating, Blackgrass [3, 16]: 10
- Plant response rating, Corn [4, 21]: 5
- Corn plant response rating (0 to 100 scale) [4, 22]: 35
- Plant response rating, Corn [4, 23]: 65
- Plant response rating, Corn [4, 16]: 65
- Plant response rating, Bromegrass, Downy [5, 21]: 45
- Bromegrass, Downy plant response rating (0 to 100 scale) [5, 14]: 60
- Plant response rating, Bromegrass, Downy [5, 23]: 60
- Plant response rating, Bromegrass, Downy [5, 16]: 80
- Plant response rating, Foxtail, Giant [6, 21]: 75
- Foxtail, Giant plant response rating (0 to 100 scale) [6, 14]: 90
- Plant response rating, Foxtail, Giant [6, 23]: 95
- Plant response rating, Foxtail, Giant [6, 16]: 95
- Plant response rating, Johnsongrass [7, 21]: 0
- Johnsongrass plant response rating (0 to 100 scale) [7, 14]: 0
- Plant response rating, Johnsongrass [7, 23]: 10
- Plant response rating, Johnsongrass [7, 16]: 45
- Plant response rating, Kochia [8, 21]: 0
- Kochia plant response rating (0 to 100 scale) [8, 14]: 20
- Plant response rating, Kochia [8, 23]: 20
- Plant response rating, Kochia [8, 16]: 60
- Plant response rating, Pigweed [9, 21]: 100
- Pigweed plant response rating (0 to 100 scale) [9, 14]: 100
- Plant response rating, Pigweed [9, 23]: 100
- Plant response rating, Pigweed [9, 16]: 100
- Plant response rating, Ragweed [10, 21]: 50
- Ragweed plant response rating (0 to 100 scale) [10, 14]: 60
- Plant response rating, Ragweed [10, 23]: 65
- Plant response rating, Ragweed [10, 16]: 75
- Plant response rating, Soybean [11, 21]: 75
- Soybean plant response rating (0 to 100 scale) [11, 14]: 80
- Plant response rating, Soybean [11, 23]: 90
- Plant response rating, Soybean [11, 16]: 95
- Plant response rating, Velvetleaf [12, 21]: 85
- Velvetleaf plant response rating (0 to 100 scale) [12, 14]: 100
- Plant response rating, Velvetleaf [12, 23]: 100
- Plant response rating, Velvetleaf [12, 16]: 100
- Plant response rating, Cupgrass, Woolly [13, 21]: 65
- Cupgrass, Woolly plant response rating (0 to 100 scale) [13, 14]: 70
- Plant response rating, Cupgrass, Woolly [13, 23]: 70
- Plant response rating, Cupgrass, Woolly [13, 16]: 75
